# According to ChEMBL document CHEMBL3352675, “Synthetic ω-3 epoxyfatty acids as antiproliferative and pro-apoptotic agents in human breast cancer cells” (2014):
# Calls of active or inactive are those of the source. The calls are words filed in the database; no cut-off is given here.
# What was measured:
# MDA-MB-231 [1] = assay: Antiproliferative activity against human MDA-MB-231 cells assessed as reduction in confluence at 10 uM after 48 hrs by crystal violet staining method; assay type: functional, cell-based
# MDA-MB-231 [2] = assay: Antiproliferative activity against human MDA-MB-231 cells assessed as reduction in confluence at 10 uM measured over 120 hrs by crystal violet staining method; assay type: functional, cell-based
# MDA-MB-468 [3] = assay: Antiproliferative activity against human MDA-MB-468 cells assessed as reduction in confluence at 10 uM after 48 hrs by crystal violet staining method; assay type: functional, cell-based
# T47D [4] = assay: Antiproliferative activity against human T47D cells assessed as reduction in confluence at 10 uM after 48 hrs by crystal violet staining method; assay type: functional, cell-based
# MDA-MB-231 [5] = assay: Reduction in ATP production in human MDA-MB-231 cells assessed as ATP level at 40 uM after 48 hrs relative to untreated control; assay type: functional; design: scale not given: the % may be the effect or the level left
# MDA-MB-231 [6] = assay: Reduction in ATP production in human MDA-MB-231 cells assessed as ATP level at 40 uM after 120 hrs relative to untreated control; assay type: functional; design: scale not given: the % may be the effect or the level left
# MDA-MB-231 [7] = assay: Reduction in ATP production in human MDA-MB-231 cells at 10 uM after 48 to 120 hrs in presence of 10 uM AUDA; assay type: functional, cell-based
# MDA-MB-231 [8] = assay: Reduction in ATP production in human MDA-MB-231 cells at 20 uM after 48 to 120 hrs in presence of 10 uM AUDA; assay type: functional, cell-based
# T47D [9] = assay: Reduction in ATP production in human T47D cells at 1 to 40 uM after 48 to 120 hrs; assay type: functional, cell-based
# MDA-MB-468 [10] = assay: Reduction in ATP production in human MDA-MB-468 cells at 1 to 40 uM after 48 to 120 hrs; assay type: functional, cell-based
# MDA-MB-231 [11] = assay: Induction of cell cycle arrest in human MDA-MB-231 cells assessed as reduction in cell accumulation at S phase at 40 uM after 48 hrs by flow cytometry; assay type: functional; conditions: MDA-MB-231, 48 h
# MDA-MB-231 [12] = assay: Induction of cell cycle arrest in human MDA-MB-231 cells assessed as reduction in cell accumulation at G2/M phase at 40 uM after 48 hrs by flow cytometry; assay type: functional; conditions: MDA-MB-231, 48 h
# MDA-MB-231 [13] = assay: Induction of cell cycle arrest in human MDA-MB-231 cells assessed as increase in cell accumulation at […] phase at 40 uM after 48 hrs by flow cytometry; assay type: functional
# MDA-MB-231 [14] = assay: Reduction in cyclin D1 immunoreactive protein expression in human MDA-MB-231 cells assessed as cyclin D1 level at 40 uM after 48 hrs; assay type: functional; design: scale not given: the % may be the effect or the level left
# MDA-MB-231 [15] = assay: Induction of apoptosis in human MDA-MB-231 cells assessed as increase in caspase 3 activity at 40 uM after 48 hrs; assay type: functional, cell-based
# MDA-MB-231 [16] = assay: Induction of apoptosis in human MDA-MB-231 cells at 40 uM after 48 hrs by Annexin V-FITC and propidium iodide staining method; assay type: functional
# MDA-MB-231 [17] = assay: Induction of apoptosis in human MDA-MB-231 cells assessed as viable cells level at 40 uM after 48 hrs by Annexin V-FITC and propidium iodide staining method (reference value: 92.6%); assay type: functional
# MDA-MB-231 [18] = assay: Induction of apoptosis in human MDA-MB-231 cells assessed as early apoptosis cells level at 40 uM after 48 hrs by Annexin V-FITC and propidium iodide staining method (reference value: 0.5 %); assay type: functional
# MDA-MB-231 [19] = assay: Induction of apoptosis in human MDA-MB-231 cells assessed as late apoptosis cells level at 40 uM after 48 hrs by Annexin V-FITC and propidium iodide staining method (reference value: 3.7%); assay type: functional
# MDA-MB-231 [20] = assay: Induction of apoptosis in human MDA-MB-231 cells assessed as necrosis cells level at 40 uM after 48 hrs by Annexin V-FITC and propidium iodide staining method (reference value: 3.3%); assay type: functional
# MDA-MB-231 [21] = assay: Reduction in cell viability in human MDA-MB-231 cells at 1 to 40 uM after 48 to 120 hrs in presence of JNK inhibitor […]; assay type: functional, cell-based
# MDA-MB-231 [22] = assay: Induction of apoptosis in human MDA-MB-231 cells assessed as increase in caspase 3 activity at 40 uM after 48 hrs in presence of JNK inhibitor […]; assay type: functional, cell-based
# MDA-MB-231 [23] = assay: Reduction in cell viability in human MDA-MB-231 cells at 1 to 40 uM after 48 to 120 hrs in presence of JNK gene silencing RNA; assay type: functional, cell-based
# MDA-MB-231 [24] = assay: Induction of apoptosis in human MDA-MB-231 cells assessed as increase in caspase 3 activity at 40 uM after 48 hrs in presence of JNK gene silencing RNA; assay type: functional, cell-based
# [25] = target: c-Jun N-terminal kinase, JNK (Homo sapiens) (UniProt P45983+P53779+P45984); assay: Induction of JNK phosphorylation in human MDA-MB-231 cells at 40 uM after 48 hrs; assay type: cell-based
# MDA-MB-231 [26] = assay: Reduction in cell viability in human MDA-MB-231 cells at 1 to 40 uM after 48 to 120 hrs; assay type: functional, cell-based
# MDA-MB-231 [27] = assay: Increase in ATP production in human MDA-MB-231 cells at 40 uM after 48 to 120 hrs; assay type: functional, cell-based
# MDA-MB-231 [28] = assay: Reduction in ATP production in human MDA-MB-231 cells at 40 uM after 120 hrs relative to untreated control; assay type: functional, cell-based
# MDA-MB-231 [29] = assay: Antiproliferative activity against human MDA-MB-231 cells assessed as reduction in confluence at 40 uM after 48 hrs by crystal violet staining method; assay type: functional, cell-based
# MDA-MB-231 [30] = assay: Antiproliferative activity against human MDA-MB-231 cells assessed as reduction in confluence at >40 uM after 120 hrs by crystal violet staining method; assay type: functional, cell-based
# MDA-MB-468 [31] = assay: Antiproliferative activity against human MDA-MB-468 cells assessed as reduction in confluence at 40 uM after 48 hrs by crystal violet staining method; assay type: functional, cell-based
# T47D [32] = assay: Antiproliferative activity against human T47D cells assessed as reduction in confluence at 40 uM after 48 hrs by crystal violet staining method; assay type: functional, cell-based
# T47D [33] = assay: Reduction in ATP production in human T47D cells at 40 uM after 48 hrs; assay type: functional, cell-based
# MDA-MB-468 [34] = assay: Reduction in ATP production in human MDA-MB-468 cells at 40 uM after 48 hrs; assay type: functional, cell-based
smiles,measurement,setting,value
CC[C@@H]1O[C@@H]1CCCCCCCCCCCCCCCC(=O)O (relative stereo),inhibition,MDA-MB-231 [1],Active
same,inhibition,MDA-MB-231 [2],Active
same,inhibition,MDA-MB-468 [3],Active
same,inhibition,T47D [4],inactive
same,Activity,MDA-MB-231 [5],45%
same,Activity,MDA-MB-231 [6],3.2%
same,Activity,MDA-MB-231 [7],Active
same,Activity,MDA-MB-231 [8],inactive
same,Activity,T47D [9],Active
same,Activity,MDA-MB-468 [10],Active
same,inhibition at 40 µM,MDA-MB-231 [11],49%
same,inhibition at 40 µM,MDA-MB-231 [12],38%
same,Activity,MDA-MB-231 [13],22%
same,Activity,MDA-MB-231 [14],23%
same,Activity,MDA-MB-231 [15],Active
same,fold change (FC),MDA-MB-231 [16],5
same,Activity,MDA-MB-231 [17],27.3%
same,Activity,MDA-MB-231 [18],4.1%
same,Activity,MDA-MB-231 [19],39.2%
same,Activity,MDA-MB-231 [20],29.4%
same,Activity,MDA-MB-231 [21],inactive
same,Activity,MDA-MB-231 [22],inactive
same,Activity,MDA-MB-231 [23],inactive
same,Activity,MDA-MB-231 [24],inactive
same,Activity,[25],Active
CCCCCCCC[C@@H]1O[C@@H]1CCCCCCCCCC(=O)O (relative stereo),Activity,MDA-MB-231 [26],inactive
same,Activity,MDA-MB-231 [27],Active
same,Activity,MDA-MB-231 [15],inactive
CCCCC[C@@H]1O[C@@H]1CCCCCCCCCCCCC(=O)O (relative stereo),Activity,MDA-MB-231 [26],inactive
same,Activity,MDA-MB-231 [15],inactive
CC(C)(C)NC(=O)NCCCCCCCCCCCCCCCC(=O)O,Activity,MDA-MB-231 [5],inactive
same,Activity,MDA-MB-231 [15],Active
CCNC(=O)OCCCCCCCCCCCCCCCC(=O)O,Activity,MDA-MB-231 [28],inactive
same,Activity,MDA-MB-231 [15],Active
CCCCNC(=O)NCCCCCCCCCCCCCCCC(=O)O,Activity,MDA-MB-231 [5],inactive
same,Activity,MDA-MB-231 [15],Active
CCNC(=O)NCCCCCCCCCCCCCCCC(=O)O,inhibition,MDA-MB-231 [29],inactive
same,inhibition,MDA-MB-231 [30],Active
same,inhibition,MDA-MB-468 [31],inactive
same,inhibition,T47D [32],inactive
same,Activity,MDA-MB-231 [5],72%
same,Activity,T47D [33],inactive
same,Activity,MDA-MB-468 [34],inactive
same,inhibition at 40 µM,MDA-MB-231 [11],21%
same,inhibition at 40 µM,MDA-MB-231 [12],9%
same,Activity,MDA-MB-231 [13],6%
same,Activity,MDA-MB-231 [14],inactive
same,Activity,MDA-MB-231 [15],Active
same,Activity,MDA-MB-231 [16],inactive
same,Activity,MDA-MB-231 [17],82.6%
same,Activity,MDA-MB-231 [18],1.6%
same,Activity,MDA-MB-231 [19],8.4%
same,Activity,MDA-MB-231 [20],7.3%
same,Activity,[25],inactive
CCNC(=O)NCCCCCCCCCCCCCCCCCC(=O)O,inhibition,MDA-MB-231 [29],inactive
same,inhibition,MDA-MB-231 [30],Active
same,inhibition,MDA-MB-468 [31],inactive
same,inhibition,T47D [32],inactive
same,Activity,MDA-MB-231 [5],72%
same,Activity,T47D [33],inactive
same,Activity,MDA-MB-468 [34],inactive
same,inhibition at 40 µM,MDA-MB-231 [11],21%
same,inhibition at 40 µM,MDA-MB-231 [12],9%
same,Activity,MDA-MB-231 [13],6%
same,Activity,MDA-MB-231 [14],inactive
same,Activity,MDA-MB-231 [15],Active
same,Activity,MDA-MB-231 [16],inactive
same,Activity,[25],inactive
CC[C@H]1O[C@H]1CCCCCCCCCCCCCCCCC(=O)O (relative stereo),inhibition,MDA-MB-231 [1],Active
same,inhibition,MDA-MB-231 [2],Active
same,inhibition,MDA-MB-468 [3],Active
same,inhibition,T47D [4],inactive
same,Activity,T47D [9],inactive
same,Activity,MDA-MB-468 [10],inactive
same,inhibition at 40 µM,MDA-MB-231 [11],33%
same,inhibition at 40 µM,MDA-MB-231 [12],30%
same,Activity,MDA-MB-231 [13],12%
same,Activity,MDA-MB-231 [14],24%
same,Activity,MDA-MB-231 [15],Active
same,fold change (FC),MDA-MB-231 [16],5
same,Activity,[25],Active
CCNC(=O)NCCCCCCCCCCCCCCCCC(=O)O,inhibition,MDA-MB-231 [29],inactive
same,inhibition,MDA-MB-231 [30],Active
same,inhibition,MDA-MB-468 [31],inactive
same,inhibition,T47D [32],inactive
same,Activity,MDA-MB-231 [5],72%
same,Activity,T47D [33],inactive
same,Activity,MDA-MB-468 [34],inactive
same,inhibition at 40 µM,MDA-MB-231 [11],21%
same,inhibition at 40 µM,MDA-MB-231 [12],9%
same,Activity,MDA-MB-231 [13],6%
same,Activity,MDA-MB-231 [14],inactive
same,Activity,MDA-MB-231 [15],Active
same,Activity,MDA-MB-231 [16],inactive
same,Activity,[25],inactive
CCCC(=O)NCCCCCCCCCCCCCCCC(=O)O,Activity,MDA-MB-231 [28],inactive
same,Activity,MDA-MB-231 [15],inactive
CCCNC(=O)NCCCCCCCCCCCCCCCC(=O)O,Activity,MDA-MB-231 [5],inactive
same,Activity,MDA-MB-231 [15],inactive
CC[C@@H]1O[C@@H]1CCCCCCCCCCCCCCCCCC(=O)O (relative stereo),inhibition,MDA-MB-231 [1],Active
same,inhibition,MDA-MB-231 [2],Active
same,inhibition,MDA-MB-468 [3],Active
same,inhibition,T47D [4],inactive
same,Activity,T47D [9],inactive
same,Activity,MDA-MB-468 [10],inactive
same,inhibition at 40 µM,MDA-MB-231 [11],42%
same,inhibition at 40 µM,MDA-MB-231 [12],19%
same,Activity,MDA-MB-231 [13],15%
same,Activity,MDA-MB-231 [14],47%
same,Activity,MDA-MB-231 [15],inactive
same,Activity,MDA-MB-231 [16],inactive
same,Activity,[25],Active
